This is an account of results in patent US20250188044A1 (HARBIN MEDISAN PHARMACEUTICAL CO., LTD., priority 2021, published 2025).

Structures are written as SMILES. “Also recorded” adds a separate entry of the source.

The subject of one data set is HepG2 cells. Put plainly: Lipid metabolism-associated gene expression of HepG2 cells (qPCR). The format is cell-based, human. The following applies: 8 nM, nM, and 200 nM, 12 h, vs. blank control (FIGS. 1 and 2). Here is the method: HepG2 cells (human hepatoma cells) were cultured in a 6-well cell culture plate and subjected to adherent culture overnight. […] The old medium was discarded and replaced with drug-containing medium of different concentrations (complete medium without the compound for the blank control group). After dosing, the cells were incubated for 12 h. The medium was discarded and total RNA was extracted by the phenol-chloroform method. After reverse transcription, the real-time quantitative fluorescent PCR experiment (RNA extraction, reverse transcription, quantitative PCR reagents were all purchased from Nanjing Vazyme Biotech Co., Ltd.) was performed using ACTB as an internal reference, and the expression of PDK4, ACADVL, and CPT1A, which are important genes in oxidative metabolism of lipids, was detected according to the steps in the product instructions (the primer sequences are shown in Table 7). […] Some other compounds of the present invention also have similar activity.
On the technique in general: Real-time PCR tracks product formation cycle by cycle.

A short description of data set [1]: Pharmacokinetic evaluation in rats. The format is in vivo, SD rats. On the procedure: Animals: 6 male SD rats, SPF grade, sourced from the animal repository of Shanghai Medicilon research institution.
The dose in the oral administration group was 10 mpk, and the dose in the intravenous injection group was 2 mpk.
All samples were centrifuged at 18,000 g for 7 min in a low-temperature centrifuge, and plasma was isolated. The content of the compound in the plasma was determined by LC-MS/MS-18, and relevant pharmacokinetic parameters were calculated from the plasma concentration data at different time points.

Data set [2] has as its system liver fibrosis model mice. Put plainly: Carbon tetrachloride-induced liver fibrosis mouse model. The format is in vivo, C57 mice. Here is the method: Animals: 60 male C57 mice, SPF grade, 8 weeks old, weighing about 20 g, purchased from Beijing Vital River Laboratory Animal Technology Co., Ltd. All animals were kept on a 12-h alternating circadian rhythm and were fed ad libitum.
Reagent: positive drug IVA337 (Pan-PPAR agonist, currently in an anti-NASH phase II clinical trial), which was prepared according to the method in the literature (J. Med. Chem., 2018, 61, 2246); carbon tetrachloride (purchased from Shanghai Aladdin Biochemical Technology Co., Ltd.), and sunflower seed oil (purchased from Shanghai Yuanye Biotech Co., Ltd.).
. Mice were given food and water normally and subjected to modeling for 3 weeks. The model group and the administration groups were each injected twice a week with a 25% CCl4 oil solution at a dose of 2 mL/kg, and the control group was injected with an oil solvent at the same volume.
. The administration was performed for 3 weeks, and the mice were given food and water normally. The mice in each group were weighed daily, and their body weight, hair, feces, and activity were carefully observed and recorded.
At 30 h after the sixth injection of CCl4, the mice were dissected for the samples. Blood was taken from the orbit, and then the liver was taken after the mice were sacrificed. The right lobular tissue of liver was fixed with 4% paraformaldehyde and used for HE staining of sections.
The pretreated tissues were sent to ServiceBio Biotechnology Co., Ltd. to make HE stained sections and Sirius red stained sections.
The liver tissue stored at −80° C. was taken out and placed in liquid nitrogen, about 10 mg of liver tissue was rapidly cut off, homogenized with a homogenizer after about 500 μL of precooled tissue lysis buffer was added, and then lysed on ice for 30 min. The lysate was centrifuged at 12,000 rpm for 15 min at 4° C., and 170 μL of supernatant was added to a clean EP tube, from which 10 μL of supernatant was taken for BCA protein quantification. 40 μL of 5*loading buffer was added to the rest of protein supernatant for boiling for denaturation, followed by SDS-PAGE electrophoresis, and the protein was transferred onto a PVDF membrane for incubation and elution of related antibodies. Finally, imaging analysis was performed by using a chemiluminescence apparatus.
The liver tissue stored at −80° C. was taken out and placed in liquid nitrogen, about 200 mg of the liver tissue was rapidly cut off, and hydroxyproline in the liver tissue was detected according to the method in the product instructions (Beijing Solarbio Science & Technology Co., Ltd., BC0255).

The test system of data set [3] is nuclear receptors other than PPAR (RARα, RARγ, RARβ, FXR, RXRα, RXRγ, RXRβ, VDR, LXRα, LXRβ, THβ, PXR, CAR). Nature of the data set: Nuclear receptor selectivity, Gal4-LBD reporter gene assays in Cos-7 cells. The format is cell-based, human. Particulars: 1 μM, relative agonistic rate (FIG. 16). (A reporter such as luciferase makes a cellular process visible.)
Data set [4] concerns PPARα/δ downstream target gene. The following applies: mice, 10 mg/kg intragastric, four consecutive days (FIG. 15).
Data set [5] in a line: Metabolic stability in human liver microsomes. The format is in vitro ADME.
In another data set the test system is NASH model mice. Nature of the data set: CDAA-induced NASH mouse model. The data set is classed as in vivo, C57 mice.
Data set [6] has as its system nonalcoholic steatohepatitis (NASH). The following applies: NCT02704403; cited from earlier work.

Usually half-life stands for how long it takes for the measured level to halve. Lower therefore signals rapid decline.

Take `Cc1cc(Cn2ncn(-c3ccc(OC(F)(F)F)cc3)c2=O)cc(C)c1OC(C)(C)C(=O)O` [Compound 61, 2-(2,6-Dimethyl-4-((5-oxo-4-(4-(trifluoromethoxy)phenyl)-4,5-dihydro-1H-1,2,4-triazo 1-1-yl)methyl)phenoxy)-2-methylpropionic acid]: in the data set with HepG2 cells, the “expression of PDK4, ACADVL, and CPT1A” value was “improve the expression of PDK4, ACADVL, and CPT1A in a dose-dependent manner with significance”. In addition, the “Time-to-peak Tmax” value is given as 0.08 ± 0.00 h in data set [1] (intravenous injection, 2 mpk) and 1.42 ± 1.01 h in data set [1] (oral administration, 10 mpk). In addition, the “Bioavailability F” value in data set [1] (oral administration, 10 mpk) is listed as 86.35%. Also, the “anti-liver fibrosis efficacy compared with IVA337 at the same dose” value in data set [2] (CCl4 liver fibrosis model mice, 10 mg/kg intragastric daily, 3 weeks, 10 mg/kg) is given as “stronger effect than IVA337 at the same dose; also recorded: better effect than IVA337 at the same dose; also recorded: better efficacy than a positive control drug IVA337 at the same dose”. Further, the hepatic hydroxyproline level entry in data set [2] (CCl4 liver fibrosis model mice, 3, 10, 30 mg/kg intragastric daily, 3 weeks (FIG. 11)) was “down-regulate the hepatic hydroxyproline level of liver fibrosis model mice in a dose-dependent manner”. The “αSMA and Collal protein levels in liver” value in data set [2] (CCl4 liver fibrosis model mice, Western blot (FIG. 12)) was “inhibit the increase of αSMA and Collal protein levels due to modeling in a dose-dependent manner”. Also, the “HE staining: infiltration of inflammatory cells in the portal area” value in data set [2] (CCl4 liver fibrosis model mice, liver sections (FIG. 13)) was “reduce the infiltration of inflammatory cells in the portal area due to modeling in a dose-dependent manner”; in the data set with NASH model mice (NASH model mice, liver sections (FIG. 8)) it was “reduce the infiltration of inflammatory cells in the portal area due to modeling in a dose-dependent manner”. The “Sirius red staining: collagen deposition” value in data set [2] (CCl4 liver fibrosis model mice, liver sections (FIG. 14)) is on record as “reduce collagen deposition due to modeling in a dose-dependent manner”; in the data set with NASH model mice (NASH model mice, liver sections (FIG. 9)) it was “reduce collagen deposition due to modeling in a dose-dependent manner”. Moreover, in data set [3], the “agonistic effect on nuclear receptors other than PPAR” value is “no significant agonistic effect on nuclear receptors other than PPAR”. In addition, the “target genes significantly upregulated in the skeletal muscle” value in data set [4] was 16. The “metabolic stability in human liver microsomes (in words)” value in data set [5] (human liver microsomes) is reported as “very good metabolic stability in human liver microsomes”. This compound also displayed a half-life in data set [5] (human liver microsomes 0.75 mg/mL, NADPH, 0-60 min) above 2 h. The “anti-NASH efficacy compared with GFT505 and IVA337 at the same dose” value with NASH model mice (NASH model mice, 10 mg/kg intragastric daily, 6 weeks, 10 mg/kg) was “stronger liver enzyme-lowering effect than GFT505 and IVA337 at the same dose; also recorded: stronger effect in resisting liver inflammation than GFT505 and IVA337; also recorded: stronger effect in resisting liver fibrosis than GFT505 and IVA337; also recorded: better effect than GFT505 and IVA337 at the same dose; also recorded: better efficacy than positive control drugs GFT505 and IVA337 at the same dose; also recorded: better anti-NASH efficacy than clinically investigational PPAR agonists GFT505 and IVA337 at the same dose”. Also, the “liver mRNA expression levels of Tnf, IIIb, Ccl4, and Adgre1” value with NASH model mice (NASH model mice, 3, 10, 30 mg/kg intragastric daily, 6 weeks (FIG. 6)) was “inhibit the increase of mRNA expression levels of Tnf, IIIb, Ccl4, and Adgre1 due to modeling in a dose-dependent manner”. The “liver mRNA expression levels of Acta2, Tgfb1, Collal, and Col3a1” value with NASH model mice (NASH model mice, 3, 10, 30 mg/kg intragastric daily, 6 weeks (FIG. 7)) is “significantly inhibit the increase of mRNA expression levels of Acta2, Tgfb1, Collal, and Col3a1 due to modeling”. Also, the “levels of ALT and AST in serum” value in the data set with NASH model mice (NASH model mice, 3, 10, 30 mg/kg intragastric daily, 6 weeks (FIGS. 4 and 5)) was “down-regulate the levels of ALT and AST in serum of NASH model mice in a dose-dependent manner”. In addition, the “Oil red staining: lipid accumulation” value in the data set on NASH model mice (NASH model mice, liver sections (FIG. 10)) is “reduce lipid accumulation due to modeling in a dose-dependent manner”.

Turning to `CSc1ccc(C(=O)/C=C/c2cc(C)c(OC(C)(C)C(=O)O)c(C)c2)cc1` [GFT505, Elafibranor], in data set [6], the “efficacy in anti-NASH phase III clinical trial, interim analysis” value is “substantially ineffective”.
